These are literature values, as cited in patent publication US20250170078A1, “STABLE PHARMACEUTICAL COMPOSITIONS OF HYDROXYUREA” (Slayback Pharma LLC., priority 2022, published 2025).

The conditions of data set [1]: oral.
The conditions of data set [2]: on its own.
The conditions of data set [3]: patients, dose escalation based on blood counts.
Assay in data set [4]: not given
The source holds these as a separate data set.

As to `NC(=O)NO` [Hydroxyurea], the solubility in water result is recorded as “freely soluble”. Besides, the “absorption from the gastrointestinal tract” value in data set [1] is given as “almost completely absorbed”. In data set [2], the antimicrobial activity entry is recorded as “high level of antimicrobial activity”. The maximum tolerable dose in data set [3] was 35 mg/kg/day. The “stability in aqueous solutions” value in data set [4] was “poor stability”.
